# Legend:
# [1] = molecular target: T1, endogenous AEP in human B lymphoblastoid pala cells (Homo sapiens, UniProt Q99538); assay: AEP inhibition in intact Pala cells; type: cell-based; conditions: 2 hrs incubation, residual enzymatic activity in lysate
# T1 construct: human B lymphoblastoid pala cells, which are rich in endogenous AEP; endogenous in cells; host or cells: human B lymphoblastoid Pala cells
# T1 sequence (Q99538 18-323): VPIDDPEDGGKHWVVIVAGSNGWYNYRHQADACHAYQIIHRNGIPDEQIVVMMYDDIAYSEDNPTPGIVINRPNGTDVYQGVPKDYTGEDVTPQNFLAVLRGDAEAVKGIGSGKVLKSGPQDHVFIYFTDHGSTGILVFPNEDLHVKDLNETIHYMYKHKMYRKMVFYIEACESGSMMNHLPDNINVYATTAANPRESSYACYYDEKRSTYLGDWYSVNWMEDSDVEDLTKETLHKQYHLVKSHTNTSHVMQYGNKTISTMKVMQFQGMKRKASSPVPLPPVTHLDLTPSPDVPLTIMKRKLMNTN
# Protocol: The cells were incubated with inhibitors for 2 hrs then cells washed, harvested and lysed and the residual enzymatic activity was determined. Lysate was normalized by Bradford assay and the experiment was performed in triplicate and the mean results and SEM were plotted.
# In an attempt to assess the activity of the compounds in intact cells, the compounds were incubated with human B lymphoblastoid pala cells, which are rich in endogenous AEP and have been used for inhibiting AEP in cellular assay.
# AEP = molecular target: T2, AEP (Homo sapiens, UniProt Q99538); assay: DTT / L-cysteine reversibility of AEP inhibition; type: biochemical; conditions: 10 mM DTT or L-cysteine added after 15 min
# T2 construct: tested with purified active AEP, IC50 values for the top 8 candidates were found
# T2 sequence (Q99538 18-323 limits assumed): T1 sequence (Q99538 18-323)
# Protocol: AEP was reacted with specified inhibitor, after 15 min 10 mM DTT or L-cysteine was added to the reaction and the fluorescent signal was read for an additional 15 min. At the end of the second 15 min incubation, the percentage of product formed in the presence of each compound was determined in comparison to the DMSO control reaction.
# Although it is not intended that embodiments of this disclosure be limited by any particular mechanism, to gain additional insight into the mechanism utilized by the inhibitors for abrogation of AEP activity, their reversibility in the presence of free thiols was determined. The addition of a strong reducing agent, such as DTT, or a weaker reducing agent, L-cysteine, to an inhibited reaction can be used to out-compete the inhibitory agent and restore catalytic activity to an enzyme with an active-site thiol residue. Here, a similar approach was used by adding a reducing agent, either DTT or L-cysteine, to a reaction, in which AEP had been incubated with a specified inhibitor, in an attempt to reverse the effects of the inhibitor. […] For compounds BB1 and 38, this increase in enzymatic activity may be due to the reduction of a disulfide linkage between the inhibitor and the enzyme, since these compounds contain thiols. Compound 10 contains a thiocyanate and may undergoes nucleophilic attack by the enzyme's active-site thiolate to form a thioimidate enzyme-inhibitor complex. Under acidic conditions, this complex is reducible by either a strong reducing agent, such as DTT, or the weaker L-cysteine.
# [2] = tested on: amyloid precursor protein (APP) cleavage; assay: APP cleavage in OGD-treated primary cortical neurons; type: cell-based
# Protocol: A. AEP activity, measured in primary neuronal cultures with 5 μM Cbz-Ala-Ala-Asn-AMC (x-axis denotes neurons were treated with 0.1 μM or 1.0 μM specified compound). B. Caspase activity, measured in primary neuronal cultures with 5 μM Ac-Asp-Glu-Val-Asp-AMC. C. Cathepsin activity, measured in primary neuronal cultures with 5 μM D-Val-Leu-Lys-AMC. D. Inhibition of APP cleavage. Lysates of primary cortical neurons pre-incubated with compounds for 30 min, underwent OGD for 4 hrs, were reperfused for 18 hrs (normoxia neurons remained at normoxic conditions). E. APP can be cleaved in a dose-dependent manner. Lysates of primary cortical neurons pre-incubated with compounds for 30 min, underwent OGD for 4 hrs, were reperfused for 18 hrs (normoxia neurons remained at normoxic conditions).
# Depriving cells of oxygen and glucose is a cellular model that is employed to trigger acidosis in cultured cells. The efficacy of the compounds in a cellular model of oxygen-glucose deprivation (OGD) was determined in an effort to mimic the effects of stroke in primary cultured neurons. As a result of depriving neurons of oxygen and glucose-containing medium, AEP activity was doubled (FIG. 7A, ‘DMSO-Norm’ compared to ‘DMSO-OGD’), while Caspase-3 and Cathepsin activities remained relatively unchanged. […] Cleavage of APP is observed in response to only DMSO treatment (FIG. 7D, lane 2), and it appears that upon the treatment of 1 μM of compounds 10, 11, and 12, and just 0.1 μM of compound s31, 38 and 64, the cleavage was blocked, presumably due to AEP inhibition.
# CYP2C19 = CYP2C19 (Homo sapiens, UniProt P33261); assay: CYP inhibition screening, CYP2C19; type: in vitro ADME
# Chain of CYP2C19 (P33261 whole entry): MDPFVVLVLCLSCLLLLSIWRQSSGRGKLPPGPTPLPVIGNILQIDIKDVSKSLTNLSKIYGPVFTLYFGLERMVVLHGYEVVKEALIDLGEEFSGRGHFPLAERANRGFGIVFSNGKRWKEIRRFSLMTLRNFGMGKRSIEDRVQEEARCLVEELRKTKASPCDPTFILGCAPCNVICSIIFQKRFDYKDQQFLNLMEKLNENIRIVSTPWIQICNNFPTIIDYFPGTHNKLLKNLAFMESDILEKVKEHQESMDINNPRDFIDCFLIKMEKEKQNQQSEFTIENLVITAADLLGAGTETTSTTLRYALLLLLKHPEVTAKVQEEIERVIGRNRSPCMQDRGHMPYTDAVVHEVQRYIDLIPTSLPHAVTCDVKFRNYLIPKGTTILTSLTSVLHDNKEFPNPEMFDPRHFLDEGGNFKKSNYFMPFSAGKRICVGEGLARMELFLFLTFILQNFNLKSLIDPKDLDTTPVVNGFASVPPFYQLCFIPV
# CYP1A2 = molecular target: T3, CYP1A2 (Homo sapiens, UniProt P05177); assay: CYP inhibition screening, CYP1A2; type: in vitro ADME
# T3 sequence (P05177 1-516): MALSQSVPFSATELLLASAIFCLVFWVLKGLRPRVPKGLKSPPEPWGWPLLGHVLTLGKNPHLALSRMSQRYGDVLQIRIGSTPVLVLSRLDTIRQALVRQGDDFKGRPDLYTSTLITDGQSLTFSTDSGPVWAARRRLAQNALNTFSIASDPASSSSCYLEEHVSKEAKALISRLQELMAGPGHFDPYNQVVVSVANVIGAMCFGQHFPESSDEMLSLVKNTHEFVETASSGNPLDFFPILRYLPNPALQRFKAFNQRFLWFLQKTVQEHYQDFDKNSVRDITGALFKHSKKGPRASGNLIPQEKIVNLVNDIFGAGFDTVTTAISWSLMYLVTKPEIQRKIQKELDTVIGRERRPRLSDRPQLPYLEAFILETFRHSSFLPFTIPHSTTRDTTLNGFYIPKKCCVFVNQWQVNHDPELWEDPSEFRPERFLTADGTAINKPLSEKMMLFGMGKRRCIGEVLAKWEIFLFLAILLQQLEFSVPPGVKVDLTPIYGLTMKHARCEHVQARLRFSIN
# [3] = Human liver microsomal stability screen; conditions: Human liver microsomes
# [4] = Mouse liver microsomal stability screen; conditions: Mouse liver microsomes
# CYP3A = assay: CYP inhibition screening, CYP3A-Testosterone; type: in vitro ADME
# CYP2C9 = CYP2C9 (Homo sapiens, UniProt P11712); assay: CYP inhibition screening, CYP2C9; type: in vitro ADME
# Chain of CYP2C9 (P11712 whole entry): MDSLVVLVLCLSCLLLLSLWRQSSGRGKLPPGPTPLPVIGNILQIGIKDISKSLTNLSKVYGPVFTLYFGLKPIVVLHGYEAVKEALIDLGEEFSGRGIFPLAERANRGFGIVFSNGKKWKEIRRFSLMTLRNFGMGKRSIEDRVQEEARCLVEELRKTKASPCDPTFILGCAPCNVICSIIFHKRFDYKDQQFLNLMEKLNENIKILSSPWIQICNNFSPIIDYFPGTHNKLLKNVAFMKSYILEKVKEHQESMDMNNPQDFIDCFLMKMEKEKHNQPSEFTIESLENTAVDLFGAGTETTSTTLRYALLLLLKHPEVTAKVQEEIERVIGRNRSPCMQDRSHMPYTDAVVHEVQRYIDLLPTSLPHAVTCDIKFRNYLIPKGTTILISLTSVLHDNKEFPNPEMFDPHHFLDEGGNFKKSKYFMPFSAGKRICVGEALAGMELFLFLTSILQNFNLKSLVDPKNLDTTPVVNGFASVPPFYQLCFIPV
# CYP3A4 = CYP3A4 (Homo sapiens, UniProt P08684); assay: CYP inhibition screening, CYP3A4-Midazolam; type: in vitro ADME
# Chain of CYP3A4 (P08684 whole entry): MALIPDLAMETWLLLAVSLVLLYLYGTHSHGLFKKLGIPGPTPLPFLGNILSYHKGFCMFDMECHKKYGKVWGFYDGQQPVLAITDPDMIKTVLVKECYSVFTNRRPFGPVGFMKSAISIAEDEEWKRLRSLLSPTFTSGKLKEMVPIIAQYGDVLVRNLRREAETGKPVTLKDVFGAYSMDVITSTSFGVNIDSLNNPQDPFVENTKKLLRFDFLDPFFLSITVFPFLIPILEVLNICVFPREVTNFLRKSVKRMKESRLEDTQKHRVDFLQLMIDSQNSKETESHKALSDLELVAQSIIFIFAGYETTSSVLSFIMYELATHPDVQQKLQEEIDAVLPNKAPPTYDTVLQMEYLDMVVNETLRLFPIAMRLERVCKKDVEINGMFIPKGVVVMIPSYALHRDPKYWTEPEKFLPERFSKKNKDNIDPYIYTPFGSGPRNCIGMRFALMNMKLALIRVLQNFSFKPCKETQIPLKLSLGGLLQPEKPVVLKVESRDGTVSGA
# Caco-2 monolayer = Caco-2 monolayer permeability screen
# Protocol: To explore the in vitro ADME profiles of the compounds, additional tests were conducted.
# CYP2D6 = CYP2D6 (Homo sapiens, UniProt P10635); assay: CYP inhibition screening, CYP2D6; type: in vitro ADME
# Chain of CYP2D6 (P10635 whole entry): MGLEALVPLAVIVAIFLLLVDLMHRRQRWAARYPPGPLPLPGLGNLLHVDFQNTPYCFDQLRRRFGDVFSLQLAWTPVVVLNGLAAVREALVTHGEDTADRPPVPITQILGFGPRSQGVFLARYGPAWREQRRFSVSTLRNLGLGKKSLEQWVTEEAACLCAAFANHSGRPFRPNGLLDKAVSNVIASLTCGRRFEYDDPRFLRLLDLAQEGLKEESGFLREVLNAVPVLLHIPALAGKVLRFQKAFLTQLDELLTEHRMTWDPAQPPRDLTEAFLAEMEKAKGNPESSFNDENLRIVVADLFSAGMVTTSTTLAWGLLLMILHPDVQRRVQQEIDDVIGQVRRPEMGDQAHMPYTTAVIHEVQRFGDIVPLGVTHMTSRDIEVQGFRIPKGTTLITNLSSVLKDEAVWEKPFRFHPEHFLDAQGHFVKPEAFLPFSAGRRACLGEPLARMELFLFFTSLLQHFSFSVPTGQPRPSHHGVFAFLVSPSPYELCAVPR
# [5] = BBB-PAMPA permeability assay; type: in vitro ADME
# Cathepsin-L = Cathepsin-L (Homo sapiens, UniProt P07711); assay: Specificity assay against Cathepsin-L; type: biochemical
# Chain of Cathepsin-L (P07711 114-333, species assumed): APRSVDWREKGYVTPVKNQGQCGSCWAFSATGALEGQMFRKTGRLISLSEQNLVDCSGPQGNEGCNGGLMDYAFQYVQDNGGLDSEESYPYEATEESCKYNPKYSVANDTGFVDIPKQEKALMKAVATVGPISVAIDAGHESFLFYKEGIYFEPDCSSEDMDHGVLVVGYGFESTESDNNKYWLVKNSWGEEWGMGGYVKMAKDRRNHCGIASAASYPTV
# Protocol: Purified recombinant enzyme was incubated with various concentrations of inhibitor in appropriate assay buffers in the presence of increasing concentrations of inhibitor. The formation of fluorescent product was monitored in duplicate reactions and the data was fit to appropriate equations to calculate the IC50 values.
smiles,measurement,setting,value
N#CSc1cnc(N)s1 [Compound 10],IC50 in intact Pala cells,[1],slightly larger IC50 values
same,AEP activity after addition of reducing agent (reversibility),AEP,regained a substantial amount of activity
same,APP cleavage after OGD,[2]; 1 μM compound,blocked
same,"APP cleavage after OGD, dose dependence",[2]; FIG. 7E,dose-dependent decrease
COc1ccc(N2CCN(C(c3ccc(N(C)C)cc3)c3nnnn3C(C)(C)C)CC2)cc1 (centres unmarked) [Compound 31],CYP2C19 inhibition,CYP2C19; 3 μM,37.7%
same,CYP2C19 inhibition,CYP2C19; 10 μM,55.7%
same,CYP1A2 inhibition,CYP1A2; 3 μM,13.5%
same,CYP1A2 inhibition,CYP1A2; 10 μM,10.3%
same,Mean Remaining Parent (NADPH-free),[3],75%
same,Mean Remaining Parent (with NADPH),[3]; 30 min,12%
same,Mean Remaining Parent (NADPH-free),[4],86%
same,Mean Remaining Parent (with NADPH),[4],16%
same,CYP3A-Testosterone inhibition,CYP3A; 3 μM,2.5%
same,CYP3A-Testosterone inhibition,CYP3A; 10 μM,0.7%
same,APP cleavage after OGD,[2]; 0.1 μM compound,blocked
same,CYP2C9 inhibition,CYP2C9; 3 μM,47.8%
same,CYP2C9 inhibition,CYP2C9; 10 μM,69.2%
same,CYP3A4-Midazolam inhibition,CYP3A4; 3 μM,−0.9%
same,CYP3A4-Midazolam inhibition,CYP3A4; 10 μM,18.1%
same,Caco-2 permeability in words,Caco-2 monolayer,highly permeable
same,A −>B Papp,Caco-2 monolayer; Table 1,19.3 10^−6 cm · s^−1
same,B −> A Papp,Caco-2 monolayer; Table 1,17.4 10^−6 cm · s^−1
same,RE,Caco-2 monolayer; Table 1,0.9
same,CYP2D6 inhibition,CYP2D6; 3 μM,9.9%
same,CYP2D6 inhibition,CYP2D6; 10 μM,1.4%
same,Pe,[5],<LLOQ
Cn1c(=O)c2c(nc(S)n2C)n(C)c1=O [Compound 38D-16],selectivity for AEP over Cathepsin-L,Cathepsin-L,500 fold
same,A −>B Papp,Caco-2 monolayer; table of derivatives,0.9 10^−6 cm · s^−1
same,B −> A Papp,Caco-2 monolayer; table of derivatives,3.0 10^−6 cm · s^−1
same,RE,Caco-2 monolayer; table of derivatives,3.3
Cn1c(S)nc2c1c(=O)n(Cc1ccccc1)c(=O)n2C [Compound 38D-22],A −>B Papp,Caco-2 monolayer; table of derivatives,10.0 10^−6 cm · s^−1
same,B −> A Papp,Caco-2 monolayer; table of derivatives,30.5 10^−6 cm · s^−1
same,RE,Caco-2 monolayer; table of derivatives,3.0
"CNC(=C[N+](=O)[O-])NCCSCc1ccc(CN(C)C)o1 [Ranitidine, reference compound]",A −>B Papp,Caco-2 monolayer; table of derivatives,0.2 10^−6 cm · s^−1
same,RE,Caco-2 monolayer; table of derivatives,8.1

# — patent US10759803B2, “Asparagine endopeptidase (AEP) inhibitors for managing cancer and compositions related thereto” (priority 2014, dated 2020)
